# Results as given in patent US8436027B2, “Azole compounds used as tuberculostatic and leishmanicide agents” (priority 2005, dated 2013).
# Where “and” joins values, the source holds several entries; their conditions need not be identical. Equal entries are not always repeated.
# Assays:
# [1] = tested on: Mycobacterium tuberculosis H37Rv (ATCC-27294); assay: MIC by MABA (Microplate Alamar Blue Assay), antimicrobial activity; assay type: cell-based; settings: M. tuberculosis H37Rv (ATCC 27294); for MIC: MABA, 5 days incubation + 24 h Alamar Blue; for Inhibition (%): concentration not given
# [2] = tested on: promastigote forms of Leishmania amazonensis; assay: Leishmanicide evaluation in vitro, live parasites counted by fluorescence; assay type: cell-based; settings: for Percentage of parasitic inhibition: L. amazonensis promastigotes; for leishmanicide activity (inhibition): Table 6
# Method: The evaluation of the Leishmanicide activity of the type I and II 1,2,3-triazole derivatives was made through in vitro essays against promastigote forms of Leishmania amazonensis, and after the incubation with compounds, live parasites are counted by fluorescence, thus obtaining as a result, the percentage of inhibition of the compounds evaluated.
# Essays were performed in triplicate using pentamidine as a positive pattern with a 160 μg/mL concentration.
# The evaluation of the leishmanicide activity of type I (Formula XII) and II (Formula XIII) imidazole derivatives was performed through in vitro essays against promastigote forms of Leishmania amazonensis, and after the incubation with compounds, live parasites are counted by fluorescence, thus obtaining as a result the inhibition percentage of the evaluated compounds.
# Essays were performed in triplicate using pentamidine as a positive pattern with a 160 μg/mL concentration, determining which compounds evaluated inhibited the parasite in lower concentrations and the percentage higher than the pattern. Table 6 lists the results obtained in the leishmanicide evaluation of derivatives 140a 148a 146a, 149a.
# [3] = tested on: M. tuberculosis; settings: background statement; cited from earlier work
Compound,MIC [1],also measured
"O=Cc1cn(-c2ccc(Cl)cc2)nn1 [114a, 4-carboxaldehyde-1-(4-chlorophenyl)-1H-1,2,3-triazole]",5 µg/mL and 5.0 µg/mL,–
"O=Cc1cn(-c2ccc(Br)cc2)nn1 [114b, 4-carboxaldehyde-1-(4-bromophenyl)-1H-1,2,3-triazole]",5.0 µg/mL,Inhibition (%) [1]: 100%
"Cc1ccc(-n2cc(C=O)nn2)cc1 [114c, 4-carboxaldehyde-1-(4-methylphenyl)-1H-1,2,3-triazole]",2.5 µg/mL,Inhibition (%) [1]: 100%
"COc1ccc(-n2cc(C=O)nn2)cc1 [114d, 4-carboxaldehyde-1-(4-methoxyphenyl)-1H-1,2,3-triazole]",10.0 µg/mL,Inhibition (%) [1]: 100%
"COc1ccc(OC)c(-n2cc(C=O)nn2)c1 [114e, 4-carboxaldehyde-1-(2,5-dimethoxyphenyl)-1H-1,2,3-triazole]",80.0 µg/mL,Inhibition (%) [1]: 59%
"O=Cc1cn(-c2cccc(Cl)c2)nn1 [114f, 4-carboxaldehyde-1-(3-chlorophenyl)-1H-1,2,3-triazole]",–,Percentage of parasitic inhibition ([2]; Concentration 20 μg/mL): No inhibition
"O=Cc1cn(-c2cc(Cl)cc(Cl)c2)nn1 [114g, 4-carboxaldehyde-1-(3,5-dichlorophenyl)-1H-1,2,3-triazole]",2.5 µg/mL,–
"N#Cc1cccc(-n2cc(C=O)nn2)c1 [114h, 4-carboxaldehyde-1-(3-cyanophenyl)-1H-1,2,3-triazole]",20.0 µg/mL,–
"N#Cc1ccc(-n2cc(C=O)nn2)cc1 [114i, 4-carboxaldehyde-1-(4-cyanophenyl)-1H-1,2,3-triazole]",5.0 µg/mL,–
"O=Cc1cn(-c2ccc([N+](=O)[O-])cc2)nn1 [114j, 4-carboxaldehyde-1-(4-nitrophenyl)-1H-1,2,3-triazole]",20.0 µg/mL,–
"COc1ccccc1-n1cc(C=O)nn1 [114l, 4-carboxaldehyde-1-(2-methoxyphenyl)-1H-1,2,3-triazole]",40.0 µg/mL,Inhibition (%) [1]: 94%
"COc1ccc(-n2cc(C=O)nn2)cc1OC [114m, 4-carboxaldehyde 1-(3,4-dimethoxyphenyl)-1H-1,2,3-triazole]",80.0 µg/mL,–
"FC(F)c1cn(-c2ccc(Cl)cc2)nn1 [121a, 1-(4-chlorophenyl)-4-difluoromethyl-1H-1,2,3-triazole]",40.0 µg/mL,–
"O=[N+]([O-])c1ccc(-n2cc(C(F)F)nn2)cc1 [121j, 1-(4-nitrophenyl)-4-difluoromethyl-1H-1,2,3-triazole]",40.0 µg/mL,–
"NNC(=O)c1ccncc1 [INH, isoniazide]",–,minimum inhibitory concentration (MIC) [3]: 0.02 to 0.06 µg/mL
"Clc1ccc(/N=C/c2cn(-c3ccc(Cl)cc3)nn2)cc1 [compound 119, (E)-4-chloride-N-((1-(4-chlorophenyl)-1H-1,2,3-triazole-4-il)methylene)benzenamine]",40 µg/mL,–
"Brc1ccc(/N=C/c2cn(-c3ccc(Br)cc3)nn2)cc1 [compound 120, (E)-4-bromo-N-((1-(4-bromophenyl)-1H-1,2,3-triazole-4-il)methylene)benzenamine]",20 µg/mL,–
N=C(N)c1ccc(OCCCCCOc2ccc(C(=N)N)cc2)cc1 [pentamidine],–,leishmanicide activity (inhibition) ([2]; Conc. 5 μ/mL): No inhibition; leishmanicide activity (inhibition) ([2]; Conc. 10 μ/mL): No inhibition; leishmanicide activity (inhibition) ([2]; Conc. 20 μ/mL): No inhibition; leishmanicide activity (inhibition) ([2]; Conc. 80 μ/mL): No inhibition; Percentage of parasitic inhibition ([2]; Concentration 5 μg/mL): No inhibition; Percentage of parasitic inhibition ([2]; Concentration 10 μg/mL): No inhibition; Percentage of parasitic inhibition ([2]; Concentration 20 μg/mL): No inhibition; Percentage of parasitic inhibition ([2]; Concentration 80 μg/mL): No inhibition
